# Assay results as given in patent US20180172683A1, “METHODS FOR ANALYZING THE INTERACTION BETWEEN A TARGET PROTEIN AND A LIGAND” (UNIVERSITY OF SOUTHERN CALIFORNIA, priority 2015, published 2018).
# Peptide text beside a SMILES is read from it. * marks the point of attachment. Biotin = O=C1N[C@H]2[C@H](CS[C@H]2CCCCC(=O)*)N1
# Key:
# Bcl-xL [1] = target: T1, Bcl-xL (Homo sapiens, UniProt Q07817); assay: Equilibrium immunoassays (ELISA and AMMP data combined), Kd of ligands for Bcl-xL; assay type: binding
# T1 construct: The gene for the first 209 amino acids of Bcl-xL; made in house; host or cells: E. coli BL21(DE3), pET24a vector
# T1 sequence (Q07817 1-209 limits assumed): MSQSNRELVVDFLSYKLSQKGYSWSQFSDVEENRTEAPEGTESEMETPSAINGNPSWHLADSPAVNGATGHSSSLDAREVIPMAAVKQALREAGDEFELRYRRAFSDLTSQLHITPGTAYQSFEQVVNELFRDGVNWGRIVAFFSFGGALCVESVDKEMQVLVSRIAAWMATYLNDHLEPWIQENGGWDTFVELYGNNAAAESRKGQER
# Procedure: Sample Preparation. A set of serially diluted Bcl-xL standards, at 2× the desired concentration, were made in sample buffer. For each ligand to be tested (such as peptide ligands), a set of dilutions at 2× the desired concentration was also prepared. The Bcl-xL samples were either mixed 1:1 with sample buffer (standards) or ligands (samples), and allowed to incubate at room temperature for 6 days. After the incubation, the standards and samples were analyzed using ELISA or the ViBE BioAnalyzer (FIG. 1).
# ELISA Assays. ELISA plates were incubated overnight at 4° C. with 1.5 nmol of streptavidin (for D1 or Bcl-xL capture ligands) or 54H6 mAb in 1×PBS. Plates were washed 3× with wash buffer (1×PBS+0.1% (v/v) Tween-20) and blocked with 1×PBS+5% (w/v) BSA for two hours. For the D1 or Bcl-xL capture ligands, 100 μL of a 30 nM solution of the reagents was added to wells and incubated for 1 hour. This step was skipped for the 54H6 mAb capture ligand (already immobilized on the plate). After the capture ligand incubation, 100 μL of sample or standards were added in each well, and incubated for 1 hour at room temperature. Plates were washed, incubated with HRP-conjugated probe antibody (such as anti-HIS tag antibody) in sample buffer for 1 hour, washed, and incubated with TMB substrate (Thermo Scientific). Reactions were stopped after approximately 10 minutes with 2 M sulfuric acid, and the absorbance at 450 nm was measured via a plate reader (Molecular Devices). The ligand of interest, capture ligand, target protein, and probe ligand used in example ELISA assays performed are highlighted in the table below.
# AMMP Assays. For the AMMP assays, 90 μL of each sample or standards was incubated with 30 μL of magnetic beads (12 μg of beads/mL) and fluorescein-labeled antibody (8 nM) in sample buffer for 1 hour. The experiment's run buffer was 1×PBS+1% (v/v) Tween-20+1% (v/v) heat-treated FBS (Invitrogen; FBS was heat treated for 15 minutes at 65° C. and filtered). BioScale Universal Detection Cartridges were used in performing all of the assays. The device was used per the manufacturer's instructions. The ligand of interest, capture ligand, target protein, and probe ligand used in example AMMP assays performed are highlighted in the table below.
# Monovalent and Divalent Analysis. The data for both sets of target concentrations were simultaneously fit for Kd (in the Kd only fit) or Kd and Mo. The data was fitted to the equilibrium model using the lowest absolute deviation method, by varying either only Kd or both Kd and [L]0 simultaneously. The monovalent assay fitting was done by Excel Solver (GRG Non-Lin method) using a set of five initial values. The set of values which provided the lowest error after the fitting were chosen as the final values. For the divalent assays, the fitting was performed by MATLAB's fminsearch function and a set of 10 initial values for Kd1, Kd2, and [L]0. […] For the divalent reverse assay, an extra parameter, Cf, was also determined by fitting (FIG. 7 Reverse Assay).
# Enzymatic Kd Calculation Assay. The Kd values of ligands of interest were determined using a protocol modified from Friguet et al., Journal of immunological methods, 77, 305-319 (1985). The samples were prepared and analyzed by ELISA assay in a similar process as described above. The OD450 for the standards and their concentration values were fit to a four parameter logistic curve (standard curve). The concentration of the free Bcl-xL in solution (responsible for the signal) for each sample was calculated using the standard curve, and converted into percent of Bcl-xL bound by ligand in solution.
# Bcl-xL [2] = target: T1, Bcl-xL; assay: Radiolabeled off-rate assay on immobilized Bcl-xL; assay type: binding
# Text: Radiolabeled Off-Rate Assay. The DNA sequences coding for the peptides were ordered from Integrated DNA Technologies (IDT). Each DNA construct contained a T7 RNA Polymerase promoter, and a 5′ deletion mutant of the Tobacco Mosaic Virus (ΔTMV). The C-terminal portion of the peptides were elongated with a flexible serine-glycine linker (six amino acids long) and an HA tag. After gel purification using urea-PAGE, the DNA sequences were PCR amplified using Taq polymerase and in vitro transcribed into mRNA using T7 RNA polymerase. After transcription, the mRNA was urea-PAGE purified and resuspended in deionized water to a final concentration of 30 μM.
# The samples were in vitro translated at 30° C. for 1 hour in the translation solution—150 mM KOAc, 750 μM MgCl2, 2 μM mRNA, 1× translation mix (20 mM Hepes-KOH pH 7.6, 100 mM creatine phosphate, 2 mM DTT, and 312.5 μM of each amino acid excluding methionine), ^35S-labeled methionine (Perkin Elmer; 20 μCi for each 25 μL of translation), and 60% (v/v) rabbit reticulocyte lysate. Radiolabeled peptides were purified using magnetic HA beads (Life Technologies) and eluted with 100 μL, 50 mM NaOH, then immediately neutralized with 20 μL of 1 M Tris-HCl, pH 8.0.
# The radiolabeled peptides were allowed to bind to 30 pmol immobilized Bcl-xL for 1 hour in sample buffer (1×PBS, 1% (w/v) BSA, 0.1% (v/v) Tween 20, 10 μM biotin). The beads were magnetically separated, and washed 5× with sample buffer. The beads were resuspended in 1 mL of sample buffer containing 3 μM non-biotinylated Bcl-xL (˜100× molar excess relative to immobilized biotinylated Bcl-xL). At various time points, 100 μL of slurry was removed and the beads were magnetically separated and washed. The percent remaining at each time point was determined by dividing the counts per minute (cpm) on beads by total cpm (beads+washes). The peptide off-rate was determined by an exponential fit of the Percent counts on beads vs. Time (s).
# The peptide ligands were made using a C-terminal HA tag, and affinity purified.
# streptavidin = streptavidin (Streptomyces avidinii, UniProt P22629); settings: literature reference value, Piran et al. 1990; cited from earlier work
# Sequence of streptavidin (P22629 25-183, species assumed): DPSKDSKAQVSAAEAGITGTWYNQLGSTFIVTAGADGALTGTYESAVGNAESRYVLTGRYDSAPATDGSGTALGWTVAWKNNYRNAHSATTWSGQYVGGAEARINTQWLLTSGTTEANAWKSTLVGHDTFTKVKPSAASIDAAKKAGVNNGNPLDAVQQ
# Bcl-xL [3] = target: T1, Bcl-xL; assay: High-throughput sequencing kinetic (HTSK) on- and off-rates of mRNA-peptide fusions; assay type: binding
# Procedure: Preparing the pools of fusion ligands. The DNAs for the final enriched pools from the extension and the doped selection against Bcl-xL were generated. The DNA pools were PCR amplified using Taq polymerase and in vitro transcribed into mRNA using T7 RNA polymerase (Liu et al., Methods Enzymol. 318, 268-293 (2000)). After transcription, the mRNA was urea-PAGE purified and resuspended in deionized water to a final concentration of 30 μM. The mRNA was then ligated to fluorescein-F30P (phosphate-dA21-[dT-fluor]-[C9]3-dAdCdCP; where [dT-fluor] is fluorescein dT (Glen Research), [C9] is spacer 9 (Glen Research), and P is puromycin (Glen Research); synthesized at the Keck Oligo Facility at Yale) using T4 DNA ligase (Takahashi et al., Methods Mol. Biol. 535, 293-314 (2009)). The ligation was performed using a splint complementary to the 3′ end of the RNA and the 5′ end of the DNA-linker. The ligated mRNA was urea-PAGE purified and resuspended in deionized water to final concentration of 30 μM. The samples were in vitro translated in the translation solution-150 mM KOAc, 750 μM MgCl2, 2 μM mRNA, in 1× translation mix (20 mM Hepes-KOH pH 7.6, 100 mM creatine phosphate, 2 mM DTT, and 312.5 μM of each amino acid) and 60% (v/v) rabbit reticulocyte lysate. To prepare radiolabeled peptides or proteins, non-labeled methionine was substituted with ^35S-labeled methionine (Perkin Elmer; 20 μCi for each 25 μL of translation). The translation reactions were incubated at 30° C. for one hour. To form mRNA-protein fusions, KCl and MgCl2 were added to the reaction to final concentrations of 250 mM and 30 mM respectively after translation, and the samples were frozen at −20° C.
# To purify the fusion molecules, 100 μL of dT cellulose (25% (v/v) slurry, GE Healthcare) in isolation buffer (100 mM Tris-HCl pH 8.0, 1 M NaCl, 0.2% (v/v) Triton X-100) was added and incubated for 1 hour. The beads were washed five times with 700 μL of isolation buffer, and the fusions were eluted with 3×80 μL of 65° C. water and desalted through Centrisep columns (Princeton Separations). The desalted fusions were adjusted to 1×RT buffer (50 mM Tris-HCl pH 8.3, 75 mM KCl, 3 mM MgCl2, […], […],) and the sample was heated to 65° C. for 5 minutes and cooled on ice to anneal the 3′ primer. After cooling, […] of Superscript II enzyme was added and the reaction incubated at 42° C. for one hour. […]
# On- and off-rate experiments. […] The radiolabeled samples were washed 3×, and the beads were counted via a scintillation counter.
# To obtain the HTSK off-rates, after the kinetic on-rate experiment, the remaining beads were washed 5× with selection buffer. […] The radiolabeled samples were washed and counted via a scintillation counter. […]
compound,measurement,setting,value
CC[C@H](C)[C@H](NC(=O)[C@@H](NC(=O)[C@@H](NC(=O)[C@@H](NC(=O)[C@H](CCC(=O)O)NC(=O)[C@@H](NC(=O)[C@@H](N)CCSC)[C@@H](C)CC)[C@@H](C)O)[C@@H](C)CC)[C@@H](C)O)C(=O)N[C@@H](Cc1ccc(O)cc1)C(=O)N[C@@H](CCCCN)C(=O)N[C@@H](Cc1ccc(O)cc1)C(=O)N[C@@H](CCCCN)C(=O)N[C@@H](CCCCN)C(=O)N[C@@H](C)C(=O)N[C@@H](C)C(=O)N[C@@H](CC(=O)O)C(=O)N[C@@H](Cc1c[nH]cn1)C(=O)N[C@@H](Cc1ccccc1)C(=O)N[C@@H](CO)C(=O)N[C@@H](CCSC)C(=O)N[C@@H](CO)C(=O)N[C@@H](CCSC)C(=O)NCC(=O)N[C@@H](CO)C(=O)N[C@@H](CCCCNC(=O)CCCC[C@@H]1SC[C@@H]2NC(=O)N[C@@H]21)C(N)=O [E2] (H-MIETITIYKYKKAADHFSMSMGSK(Biotin)-NH2),kon,Bcl-xL [1],53000 M⁻¹ s⁻¹
same,Kd,"Bcl-xL [1]; Kd, equilibrium ELISA/AMMP assays (Table 1 values)",0.3 nM
same,Ratio of Fit [L]0 to Known [L]0,"Bcl-xL [1]; simultaneous fit of Kd and [L]0, mean ± standard error",96% ± 40%
same,koff,"Bcl-xL [2]; radiolabeled peptide-mRNA fusions bound to immobilized Bcl-xL, read-out: koff",1.6e-05 s⁻¹
O=C(O)CCCC[C@@H]1SC[C@@H]2NC(=O)N[C@@H]21 [biotin],slowest reported off-rate of biotin and streptavidin,streptavidin,2.4×10^−6
MIDTNVILNYKKAADHFSITMGSK [D79],Kd,Bcl-xL [3]; from HTSK on- and off-rates,0.0024 nM
same,HTSK koff,"Bcl-xL [3]; mRNA-peptide fusions, next-generation sequencing",3.3e-07 s⁻¹
same,Peptide koff,Bcl-xL [2]; in vitro translated radiolabeled peptides with C-terminal HA tag,5.9e-07 s⁻¹
same,koff value,"Bcl-xL [2]; radiolabeled peptide, unit not given",5.9×10^−7
